In publication PMC7162861, “Synthesis, cytotoxicity, pharmacokinetic profile, binding with DNA and BSA of new imidazo[1,2-a]pyrazine-benzo[d]imidazol-5-yl hybrids” (Scientific Reports, 2020):

How the values were obtained:
K-562 = test: NCI cytotoxicity screen, Leukemia panel; type: cell-based; settings: Homo sapiens, K562; K-562; single dose 10 µM; negative = lethal; read-out: Percent growth inhibition
Protocol: (§1) Cytotoxicity was performed at National Cancer Institute (NCI), Bethesda, USA as per their protocols.

SR = test: NCI cytotoxicity screen, Leukemia panel; type: cell-based; settings: Homo sapiens, single dose 10 µM, negative = lethal, read-out: Percent growth inhibition
Protocol: as §1

HL-60(TB) = test: NCI cytotoxicity screen, Leukemia panel; type: cell-based; settings: Homo sapiens, HL-60, HL-60(TB); single dose 10 µM; negative = lethal; read-out: Percent growth inhibition
Protocol: as §1

MOLT-4 = test: NCI cytotoxicity screen, Leukemia panel; type: cell-based; settings: Homo sapiens, MOLT-4, MOLT-4; single dose 10 µM; negative = lethal; read-out: Percent growth inhibition
Protocol: as §1

CCRF-CEM = test: NCI cytotoxicity screen, Leukemia panel; type: cell-based; settings: Homo sapiens, single dose 10 µM, negative = lethal, read-out: Percent growth inhibition
Protocol: as §1

RPMI-8226 = test: NCI cytotoxicity screen, Leukemia panel; type: cell-based; settings: Homo sapiens; RPMI-8226; single dose 10 µM; negative = lethal; read-out: Percent growth inhibition
Protocol: as §1

SNB-19 = test: NCI cytotoxicity screen, CNS Cancer panel; type: cell-based; settings: Homo sapiens; SNB-19; single dose 10 µM; negative = lethal; read-out: Percent growth inhibition
Protocol: as §1

U251 = test: NCI cytotoxicity screen, CNS Cancer panel; type: cell-based; settings: Homo sapiens, U-251; U251; single dose 10 µM; negative = lethal; read-out: Percent growth inhibition
Protocol: as §1

SF-268 = test: NCI cytotoxicity screen, CNS Cancer panel; type: cell-based; settings: Homo sapiens, single dose 10 µM, negative = lethal, read-out: Percent growth inhibition
Protocol: as §1

SF-539 = test: NCI cytotoxicity screen, CNS Cancer panel; type: cell-based; settings: Homo sapiens, single dose 10 µM, negative = lethal, read-out: Percent growth inhibition
Protocol: as §1

SF-295 = test: NCI cytotoxicity screen, CNS Cancer panel; type: cell-based; settings: Homo sapiens, single dose 10 µM, negative = lethal, read-out: Percent growth inhibition
Protocol: as §1

SNB-75 = test: NCI cytotoxicity screen, CNS Cancer panel; type: cell-based; settings: Homo sapiens, single dose 10 µM, negative = lethal, read-out: Percent growth inhibition
Protocol: as §1

A549/ATCC = test: NCI cytotoxicity screen, Non-Small Cell Lung Cancer panel; type: cell-based; settings: Homo sapiens; A549/ATCC; single dose 10 µM; negative = lethal; read-out: Percent growth inhibition
Protocol: as §1

HOP-92 = test: as above; type: cell-based; settings: Homo sapiens, single dose 10 µM, negative = lethal, read-out: Percent growth inhibition
Protocol: as §1

NCI-H460 = test: as above; type: cell-based; settings: Homo sapiens, single dose 10 µM, negative = lethal, read-out: Percent growth inhibition
Protocol: as §1

HOP-62 = test: as above; type: cell-based; settings: Homo sapiens, single dose 10 µM, negative = lethal, read-out: Percent growth inhibition
Protocol: as §1

EXVX = test: as above; type: cell-based; settings: Homo sapiens; EXVX; single dose 10 µM; negative = lethal; read-out: Percent growth inhibition
Protocol: as §1

COLO 205 = test: NCI cytotoxicity screen, Colon Cancer panel; type: cell-based; settings: Homo sapiens, single dose 10 µM, negative = lethal, read-out: Percent growth inhibition
Protocol: as §1

HCT-116 = test: NCI cytotoxicity screen, Colon Cancer panel; type: cell-based; settings: Homo sapiens, single dose 10 µM, negative = lethal, read-out: Percent growth inhibition
Protocol: as §1

HT29 = test: NCI cytotoxicity screen, Colon Cancer panel; type: cell-based; settings: Homo sapiens, HT-29; HT29; single dose 10 µM; negative = lethal; read-out: Percent growth inhibition
Protocol: as §1

HCT-15 = test: NCI cytotoxicity screen, Colon Cancer panel; type: cell-based; settings: Homo sapiens, single dose 10 µM, negative = lethal, read-out: Percent growth inhibition
Protocol: as §1

DU-145 = test: NCI cytotoxicity screen, Prostate Cancer panel; type: cell-based, human; settings: Homo sapiens, single dose 10 µM, negative = lethal, read-out: Percent growth inhibition
Protocol: as §1

PC-3 = test: NCI cytotoxicity screen, Prostate Cancer panel; type: cell-based, human; settings: Homo sapiens, single dose 10 µM, negative = lethal, read-out: Percent growth inhibition
Protocol: as §1

NCI/ADR-RES = test: NCI cytotoxicity screen, Ovarian Cancer panel; type: cell-based; settings: Homo sapiens, single dose 10 µM, negative = lethal, read-out: Percent growth inhibition
Protocol: as §1

SK-OV-3 = test: NCI cytotoxicity screen, Ovarian Cancer panel; type: cell-based; settings: Homo sapiens, single dose 10 µM, negative = lethal, read-out: Percent growth inhibition
Protocol: as §1

IGROV1 = test: NCI cytotoxicity screen, Ovarian Cancer panel; type: cell-based; settings: Homo sapiens, IGROV-1, single dose 10 µM, negative = lethal, read-out: Percent growth inhibition
Protocol: as §1

OVCAR-8 = test: NCI cytotoxicity screen, Ovarian Cancer panel; type: cell-based; settings: Homo sapiens, single dose 10 µM, negative = lethal, read-out: Percent growth inhibition
Protocol: as §1

OVCAR-4 = test: NCI cytotoxicity screen, Ovarian Cancer panel; type: cell-based; settings: Homo sapiens; OVCAR-4; single dose 10 µM; negative = lethal; read-out: Percent growth inhibition
Protocol: as §1

OVCAR-5 = test: NCI cytotoxicity screen, Ovarian Cancer panel; type: cell-based; settings: Homo sapiens, single dose 10 µM, negative = lethal, read-out: Percent growth inhibition
Protocol: as §1

ACHN = test: NCI cytotoxicity screen, Renal Cancer panel; type: cell-based; settings: Homo sapiens, single dose 10 µM, negative = lethal, read-out: Percent growth inhibition
Protocol: as §1

RXF 393 = test: NCI cytotoxicity screen, Renal Cancer panel; type: cell-based; settings: Homo sapiens, single dose 10 µM, negative = lethal, read-out: Percent growth inhibition
Protocol: as §1

UO-31 = test: NCI cytotoxicity screen, Renal Cancer panel; type: cell-based; settings: Homo sapiens, single dose 10 µM, negative = lethal, read-out: Percent growth inhibition
Protocol: as §1

SN12C = test: NCI cytotoxicity screen, Renal Cancer panel; type: cell-based; settings: Homo sapiens, single dose 10 µM, negative = lethal, read-out: Percent growth inhibition
Protocol: as §1

A498 = test: NCI cytotoxicity screen, Renal Cancer panel; type: cell-based; settings: Homo sapiens, single dose 10 µM, negative = lethal, read-out: Percent growth inhibition
Protocol: as §1

OVCAR-3 = test: NCI cytotoxicity screen, Ovarian Cancer panel; type: cell-based, human; settings: Homo sapiens; OVCAR-3; single dose 10 µM; negative = lethal; read-out: Percent growth inhibition
Protocol: as §1

MDA-MB-435 = test: NCI cytotoxicity screen, Melanoma panel; type: cell-based; settings: Homo sapiens, MDA-MB-435, read-out: Percent growth inhibition
Protocol: as §1

UACC-257 = test: NCI cytotoxicity screen, Melanoma panel; type: cell-based; settings: Homo sapiens, single dose 10 µM, negative = lethal, read-out: Percent growth inhibition
Protocol: as §1

SK-MEL-2 = test: NCI cytotoxicity screen, Melanoma panel; type: cell-based; settings: Homo sapiens, single dose 10 µM, negative = lethal, read-out: Percent growth inhibition
Protocol: as §1

SK-MEL-5 = test: NCI cytotoxicity screen, Melanoma panel; type: cell-based; settings: Homo sapiens, single dose 10 µM, negative = lethal, read-out: Percent growth inhibition
Protocol: as §1

MALME-3M = test: NCI cytotoxicity screen, Melanoma panel; type: cell-based; settings: Homo sapiens; MALME-3M; single dose 10 µM; negative = lethal; read-out: Percent growth inhibition
Protocol: as §1

SK-MEL-28 = test: NCI cytotoxicity screen, Melanoma panel; type: cell-based; settings: Homo sapiens, single dose 10 µM, negative = lethal, read-out: Percent growth inhibition
Protocol: as §1

SW-620 = test: NCI cytotoxicity screen, Colon Cancer panel; type: cell-based, human; settings: Homo sapiens, single dose 10 µM, negative = lethal, read-out: Percent growth inhibition
Protocol: as §1

KM12 = test: NCI cytotoxicity screen, Colon Cancer panel; type: cell-based, human; settings: Homo sapiens, single dose 10 µM, negative = lethal, read-out: Percent growth inhibition
Protocol: as §1

HCC-2998 = test: NCI cytotoxicity screen, Colon Cancer panel; type: cell-based, human; settings: Homo sapiens; HCC-2998; single dose 10 µM; negative = lethal; read-out: Percent growth inhibition
Protocol: as §1

LOX IMVI = test: NCI cytotoxicity screen, Melanoma panel; type: cell-based, human; settings: Homo sapiens, single dose 10 µM, negative = lethal, read-out: Percent growth inhibition
Protocol: as §1

M14 = test: NCI cytotoxicity screen, Melanoma panel; type: cell-based, human; settings: Homo sapiens, single dose 10 µM, negative = lethal, read-out: Percent growth inhibition
Protocol: as §1

786-0 = test: NCI cytotoxicity screen, Renal Cancer panel; type: cell-based, human; settings: Homo sapiens, single dose 10 µM, negative = lethal, read-out: Percent growth inhibition
Protocol: as §1

TK-10 = test: NCI cytotoxicity screen, Renal Cancer panel; type: cell-based, human; settings: Homo sapiens, single dose 10 µM, negative = lethal, read-out: Percent growth inhibition
Protocol: as §1

MDA-MB-468 = test: NCI cytotoxicity screen, Breast Cancer panel; type: cell-based; settings: Homo sapiens, single dose 10 µM, negative = lethal, read-out: Percent growth inhibition
Protocol: as §1

BT-549 = test: NCI cytotoxicity screen, Breast Cancer panel; type: cell-based; settings: Homo sapiens, single dose 10 µM, negative = lethal, read-out: Percent growth inhibition
Protocol: as §1

MCF7 = test: NCI cytotoxicity screen, Breast Cancer panel; type: cell-based; settings: Homo sapiens, single dose 10 µM, negative = lethal, read-out: Percent growth inhibition
Protocol: as §1

T-47D = test: NCI cytotoxicity screen, Breast Cancer panel; type: cell-based; settings: Homo sapiens, T47D, T-47D; single dose 10 µM; negative = lethal; read-out: Percent growth inhibition
Protocol: as §1

MDA-MB-231/ATCC = test: NCI cytotoxicity screen, Breast Cancer panel; type: cell-based; settings: Homo sapiens, MDA-MB-231, read-out: Percent growth inhibition
Protocol: as §1

HS 578 T = test: NCI cytotoxicity screen, Breast Cancer panel; type: cell-based; settings: Homo sapiens; HS 578T; single dose 10 µM; negative = lethal; read-out: Percent growth inhibition
Protocol: as §1

NCI-H226 = test: NCI cytotoxicity screen, Non-Small Cell Lung Cancer panel; type: cell-based, human; settings: Homo sapiens, single dose 10 µM, negative = lethal, read-out: Percent growth inhibition
Protocol: as §1

NCI-H23 = test: as above; type: cell-based, human; settings: Homo sapiens, single dose 10 µM, negative = lethal, read-out: Percent growth inhibition
Protocol: as §1

NCI-522 = test: as above; type: cell-based, human; settings: Homo sapiens; NCI-522; single dose 10 µM; negative = lethal; read-out: Percent growth inhibition
Protocol: as §1

NCI-H322M = test: as above; type: cell-based, human; settings: Homo sapiens, single dose 10 µM, negative = lethal, read-out: Percent growth inhibition
Protocol: as §1

Brc1cn2ccnc2c(-c2ccc3c(c2)ncn3C2CCCCC2)n1 [Compound 8, 6-bromo-8-(1-cyclohexyl-1H-benzo[d]imidazol-5-yl)imidazo[1,2-a]pyrazine]
inhibition at 10 µM (K-562): 17.4%
inhibition at 10 µM (SR): 20.6%
inhibition at 10 µM (HL-60(TB)): 10.5%
inhibition at 10 µM (MOLT-4): 17.4%
inhibition at 10 µM (CCRF-CEM): < 1%
inhibition at 10 µM (RPMI-8226): < 1%
inhibition at 10 µM (SNB-19): 10.5%
inhibition at 10 µM (U251): < 1%
inhibition at 10 µM (SF-268): 5.8%
inhibition at 10 µM (SF-539): 6.65%
inhibition at 10 µM (SF-295): 7.58%
inhibition at 10 µM (SNB-75): 16.4%
inhibition at 10 µM (A549/ATCC): 4.8%
inhibition at 10 µM (HOP-92): 21.9%
inhibition at 10 µM (NCI-H460): 3.26%
inhibition at 10 µM (HOP-62): 13%
inhibition at 10 µM (EXVX): 10.3%
inhibition at 10 µM (COLO 205): < 1%
inhibition at 10 µM (HCT-116): 6.06%
inhibition at 10 µM (HT29): 4.48%
inhibition at 10 µM (HCT-15): 4.25%
inhibition at 10 µM (DU-145): < 1%
inhibition at 10 µM (PC-3): 10.3%
inhibition at 10 µM (NCI/ADR-RES): 5.47%
inhibition at 10 µM (SK-OV-3): 6.59%
inhibition at 10 µM (IGROV1): 8.45%
inhibition at 10 µM (OVCAR-8): 3.55%
inhibition at 10 µM (OVCAR-4): 9.25%
inhibition at 10 µM (OVCAR-5): < 1%
inhibition at 10 µM (ACHN): < 1%
inhibition at 10 µM (RXF 393): < 1%
inhibition at 10 µM (UO-31): 40.1%
inhibition at 10 µM (SN12C): < 1%
inhibition at 10 µM (A498): 3.51%
inhibition at 10 µM (OVCAR-3): < 1%
inhibition at 10 µM (MDA-MB-435): < 1%
inhibition at 10 µM (UACC-257): < 1%
inhibition at 10 µM (SK-MEL-2): 0.53%
inhibition at 10 µM (SK-MEL-5): 8.35%
inhibition at 10 µM (MALME-3M): < 1%
inhibition at 10 µM (SK-MEL-28): < 1%
inhibition at 10 µM (SW-620): < 1%
inhibition at 10 µM (KM12): < 1%
inhibition at 10 µM (HCC-2998): 3.13%
inhibition at 10 µM (LOX IMVI): 9.14%
inhibition at 10 µM (M14): < 1%
inhibition at 10 µM (786-0): 1.3%
inhibition at 10 µM (TK-10): < 1%
inhibition at 10 µM (MDA-MB-468): 6.27%
inhibition at 10 µM (BT-549): 6.38%
inhibition at 10 µM (MCF7): 37.6%
inhibition at 10 µM (T-47D): 25.3%
inhibition at 10 µM (MDA-MB-231/ATCC): 3.12%
inhibition at 10 µM (HS 578 T): 2.68%
inhibition at 10 µM (NCI-H226): 3.73%
inhibition at 10 µM (NCI-H23): 8.76%
inhibition at 10 µM (NCI-522): 15.2%
inhibition at 10 µM (NCI-H322M): 10.9%
